According to US20030050192A1, “Herbicidal composition” (priority 1998, published 2003):
Several values for one entry are separate records, joined by “and”; a condition that tells them apart may be missing. Equal values may be shown once.

Tests used:
Format in all cases: in vivo
Details in all cases: ten days after application
Emex [1] = experiment: Example B3: post-emergent application of herbicide of formula I with/without safener, greenhouse, Emex
Setaria [2] = experiment: Example B3: post-emergent application of herbicide of formula I with/without safener, greenhouse, Setaria
Chenopodium [3] = experiment: Example B3: post-emergent application of herbicide of formula I with/without safener, greenhouse, Chenopodium
Raphanus [4] = experiment: Example B2: post-emergent application of herbicide of formula I with/without safener, greenhouse, Raphanus
Barley = experiment: Example B2: post-emergent application of herbicide of formula I with/without safener, greenhouse, barley
Description: Post-emergent Applications of Mixtures of a Herbicide of Formula I with a Safener of Formulae IIa to IIq to barley
(§1) Under greenhouse conditions, barley is grown in plastic pots to the 2.5-leaf stage. In this stage, both the herbicide of formula I alone and the mixture of the herbicide with a safener of formulae IIa to IIq are applied to the test plants. The test substances (Formulation Examples F3 a) and b)) are applied as aqueous suspension with 500 l water/ha. Ten days after the application, the results are evaluated on a percent scale.

Raphanus [5] = experiment: Example B3: post-emergent application of herbicide of formula I with/without safener, greenhouse, Raphanus
Setaria [6] = experiment: Example B2: post-emergent application of herbicide of formula I with/without safener, greenhouse, Setaria
Emex [7] = experiment: Example B2: post-emergent application of herbicide of formula I with/without safener, greenhouse, Emex
Durum wheat = experiment: Example B3: post-emergent application of herbicide of formula I with/without safener, greenhouse, durum wheat
Description: Post-emergent Applications of Mixtures of a Herbicide of Formula I with a Safener of Formulae IIa to IIq to Durum Wheat.
as §1, with “durum wheat” for “barley”

Chenopodium [8] = experiment: Example B2: post-emergent application of herbicide of formula I with/without safener, greenhouse, Chenopodium
Chenopodium [9] = experiment: Example B1: post-emergent application of herbicide of formula I with/without safener, greenhouse, Chenopodium
Raphanus [10] = experiment: Example B1: post-emergent application of herbicide of formula I with/without safener, greenhouse, Raphanus
Setaria [11] = experiment: Example B1: post-emergent application of herbicide of formula I with/without safener, greenhouse, Setaria
Emex [12] = experiment: Example B1: post-emergent application of herbicide of formula I with/without safener, greenhouse, Emex
Wheat = experiment: Example B1: post-emergent application of herbicide of formula I with/without safener, greenhouse, wheat
Description: Post-emergent Applications of Mixtures of a Herbicide of Formula I with a Safener of Formulae IIa to IIq to Cereals
as §1, with “wheat” for “barley”

[13] = Herbicide of formula 1 250 g/ha + safener 60 g/ha
[14] = Herbicide of formula 1 15 g/ha + safener 4 g/ha
[15] = Herbicide of formula 1 60 g/ha + safener 15 g/ha
[16] = Herbicide of formula 1 alone 250 g/ha
[17] = Herbicide of formula 1 alone 15 g/ha
[18] = Herbicide of formula 1 alone 60 g/ha

COC(=O)c1cc(-c2ccccc2)n(-c2ccccc2Cl)n1 [Safener no. 2,01]
herbicidal effect on Emex, percent scale (Emex [1]; [13]): 90% | herbicidal effect on Setaria, percent scale (Setaria [2]; [13]): 80% | herbicidal effect on Chenopodium, percent scale (Chenopodium [3]; [13]): 95% | herbicidal effect on Raphanus, percent scale (Raphanus [4]; [14]): 80% | herbicidal effect on Raphanus, percent scale (Raphanus [4]; [15]): 80% | damage to Barley, percent scale (Barley; [14]): 0% | damage to Barley, percent scale (Barley; [15]): 10% | herbicidal effect on Raphanus, percent scale (Raphanus [5]; [13]): 80% | herbicidal effect on Setaria, percent scale (Setaria [6]; [14]): 70% | herbicidal effect on Setaria, percent scale (Setaria [6]; [15]): 70% | herbicidal effect on Emex, percent scale (Emex [7]; [14]): 90% | herbicidal effect on Emex, percent scale (Emex [7]; [15]): 90% | damage to Durum wheat, percent scale (Durum wheat; [13]): 10% | herbicidal effect on Chenopodium, percent scale (Chenopodium [8]; [14]): 90% | herbicidal effect on Chenopodium, percent scale (Chenopodium [8]; [15]): 90%

COc1nn(C(=O)NS(=O)(=O)c2ccccc2OC(F)(F)F)c(=O)n1C [Herbicide of formula 1]
herbicidal effect on Emex, percent scale (Emex [1]; [16]): 90% | herbicidal effect on Setaria, percent scale (Setaria [2]; [16]): 80% | herbicidal effect on Chenopodium, percent scale (Chenopodium [9]; [17]): 90% and 80% | herbicidal effect on Chenopodium, percent scale (Chenopodium [9]; [18]): 90% | herbicidal effect on Chenopodium, percent scale (Chenopodium [3]; [16]): 90% | herbicidal effect on Raphanus, percent scale (Raphanus [10]; [17]): 80% | herbicidal effect on Raphanus, percent scale (Raphanus [10]; [18]): 80% | herbicidal effect on Setaria, percent scale (Setaria [11]; [17]): 70% | herbicidal effect on Setaria, percent scale (Setaria [11]; [18]): 80% | herbicidal effect on Raphanus, percent scale (Raphanus [4]; [17]): 80% | herbicidal effect on Raphanus, percent scale (Raphanus [4]; [18]): 80% | damage to Barley, percent scale (Barley; [17]): 30% | damage to Barley, percent scale (Barley; [18]): 40% | herbicidal effect on Raphanus, percent scale (Raphanus [5]; [16]): 90% | herbicidal effect on Emex, percent scale (Emex [12]; [17]): 80% | herbicidal effect on Emex, percent scale (Emex [12]; [18]): 90% | herbicidal effect on Setaria, percent scale (Setaria [6]; [17]): 70% | herbicidal effect on Setaria, percent scale (Setaria [6]; [18]): 80% | herbicidal effect on Emex, percent scale (Emex [7]; [17]): 80% | herbicidal effect on Emex, percent scale (Emex [7]; [18]): 90% | damage to Durum wheat, percent scale (Durum wheat; [16]): 30% | damage to Wheat, percent scale (Wheat; [17]): 10% | damage to Wheat, percent scale (Wheat; [18]): 20% | herbicidal effect on Chenopodium, percent scale (Chenopodium [8]; [17]): 90% | herbicidal effect on Chenopodium, percent scale (Chenopodium [8]; [18]): 90%

CCCCCC(C)OC(=O)COc1ccc(Cl)c2cccnc12 (stereo not shown) [Safener no. 1,01]
herbicidal effect on Chenopodium, percent scale (Chenopodium [9]; [14]): 90% | herbicidal effect on Raphanus, percent scale (Raphanus [10]; [14]): 80% | herbicidal effect on Setaria, percent scale (Setaria [11]; [14]): 70% | herbicidal effect on Emex, percent scale (Emex [12]; [14]): 90% | damage to Wheat, percent scale (Wheat; [14]): 5%

CCOC(=O)C1=NN(c2ccc(Cl)cc2Cl)C(C)(C(=O)OCC)C1 (stereo not shown) [Safener no. 3,03]
herbicidal effect on Chenopodium, percent scale (Chenopodium [9]; [14]): 90% | herbicidal effect on Raphanus, percent scale (Raphanus [10]; [14]): 80% | herbicidal effect on Setaria, percent scale (Setaria [11]; [14]): 70% | herbicidal effect on Raphanus, percent scale (Raphanus [4]; [15]): 80% | damage to Barley, percent scale (Barley; [15]): 30% | herbicidal effect on Emex, percent scale (Emex [12]; [14]): 90% | herbicidal effect on Setaria, percent scale (Setaria [6]; [15]): 80% | herbicidal effect on Emex, percent scale (Emex [7]; [15]): 90% | damage to Wheat, percent scale (Wheat; [14]): 5% | herbicidal effect on Chenopodium, percent scale (Chenopodium [8]; [15]): 80%

FC(F)(F)C(=NOCC1OCCO1)c1ccc(Cl)cc1 [Safener no. 6.02]
herbicidal effect on Chenopodium, percent scale (Chenopodium [9]; [15]): 80% | herbicidal effect on Raphanus, percent scale (Raphanus [10]; [15]): 80% | herbicidal effect on Setaria, percent scale (Setaria [11]; [15]): 80% | herbicidal effect on Raphanus, percent scale (Raphanus [4]; [15]): 80% | damage to Barley, percent scale (Barley; [15]): 30% | herbicidal effect on Emex, percent scale (Emex [12]; [15]): 90% | herbicidal effect on Setaria, percent scale (Setaria [6]; [15]): 80% | herbicidal effect on Emex, percent scale (Emex [7]; [15]): 90% | damage to Wheat, percent scale (Wheat; [15]): 10% | herbicidal effect on Chenopodium, percent scale (Chenopodium [8]; [15]): 80%

CCOC(=O)c1nc(C(Cl)(Cl)Cl)n(-c2ccc(Cl)cc2Cl)n1 [Safener no. 2,05]
herbicidal effect on Raphanus, percent scale (Raphanus [4]; [15]): 90% | damage to Barley, percent scale (Barley; [15]): 30% | herbicidal effect on Setaria, percent scale (Setaria [6]; [15]): 80% | herbicidal effect on Emex, percent scale (Emex [7]; [15]): 90% | herbicidal effect on Chenopodium, percent scale (Chenopodium [8]; [15]): 90%
